Measurements as given in EP2608671B1, “COMPOUNDS FOR TREATMENT OF CANCER” (Gtx, Inc., priority 2010, dated 2012).

Assays:
[1] = system: DU 145; experiment: cells; conditions: Homo sapiens, DU-145, 96 h, read-out: IC50 ± SEM (nM) Du 145
[2] = system: A375; experiment: SRB cell growth inhibition (cytotoxicity) assay; assay type: cell-based, human; conditions: Homo sapiens, A-375; A375 melanoma cells, 48 h, SRB; read-out: IC50 ± SEM (nM) A375
[3] = system: LNCaP; experiment: cells; conditions: Homo sapiens, 96 h, read-out: IC50 ± SEM (nM), LNCaP
[4] = system: B16-F1; experiment: SRB cell growth inhibition (cytotoxicity) assay; assay type: cell-based, mouse; conditions: Mus musculus; B16-F1 melanoma cells, 48 h, SRB; read-out: IC50 ± SEM (nM) B16-F1
From the text: (§1) The only compounds which belong to the invention are the ones falling under the scope of formula (XI).

[5] = system: PPC-1; experiment: cells; conditions: Homo sapiens, PPC-1, 96 h, read-out: IC50 ± SEM (nM), PPC-1
[6] = system: PC-3; experiment: cells; conditions: Homo sapiens, PC-3, 96 h, read-out: IC50 ± SEM (nM), PC-3
From the text: as §1
Cells were stained with SRB solution.
Cells. […] Cells between the third and fifth passages were used for experiments.
Cell growth inhibition studies. […] Cells were stained with sulphorhodamine B (SRB) solution.

[7] = system: WM-164; experiment: SRB cell growth inhibition (cytotoxicity) assay; assay type: cell-based, human; conditions: Homo sapiens; WM164 melanoma cells, 48 h, SRB; read-out: IC50 ± SEM (nM) WM164

Compound	IC50 [1] [nM]	IC50 [2] [nM]	IC50 [3] [nM]	IC50 [4] [nM]	IC50 [5] [nM]	IC50 [6] [nM]	IC50 [7] [nM]
Cc1ccc(-c2nc(C(=O)c3ccc(F)cc3)cn2S(=O)(=O)c2ccccc2)cc1 [11db, (4-fluorophenyl)(1-(phenylsulfonyl)-2-(p-tolyl)-1H-imidazol-4-yl)methanone]	80 ± 1	113 ± 14	55 ± 3	287 ± 31	57 ± 1	80 ± 1	107 ± 14
COc1cc(C(=O)c2cn(S(=O)(=O)c3ccccc3)c(-c3cc(OC)c(OC)c(OC)c3)n2)cc(OC)c1OC [11ea, (1-(phenylsulfonyl)-2-(3,4,5-trimethoxyphenyl)-1H-imidazol-4-yl)(3,4,5-trimethoxyphenyl)methanone]	> 10000	> 10000	> 10000	> 10000	> 10000	> 10000	> 10000
COc1cc(-c2nc(C(=O)c3ccc(F)cc3)cn2S(=O)(=O)c2ccccc2)cc(OC)c1OC [11eb, (4-fluorophenyl)(1-(phenylsulfonyl)-2-(3,4,5-trimethoxyphenyl)-1H-imidazol-4-yl)methanone]	> 10000	3840	> 10000	> 10000	> 10000	> 10000	> 10000
COc1cc(C(=O)c2cn(S(=O)(=O)c3ccccc3)c(-c3ccc(N(C)C)cc3)n2)cc(OC)c1OC [11ga, (2-(4-(dimethylamino)phenyl)-1-(phenylsulfonyl)-1H-imidazol-4-yl)(3,4,5-trimethoxyphenyl)methanone]	99 ± 2	162 ± 13	62 ± 2	1200 ± 90	72 ± 0.4	93 ± 6	308 ± 32
CN(C)c1ccc(-c2nc(C(=O)c3ccc(F)cc3)cn2S(=O)(=O)c2ccccc2)cc1 [11gb, (2-(4-(dimethylamino)phenyl)-1-(phenylsulfonyl)-1H-imidazol-4-yl)(4-fluorophenyl)methanone]	74 ± 0.5	55 ± 7	56 ± 6	242 ± 26	48 ± 0.3	83 ± 3	56 ± 4
COc1ccc(-c2nc(C(=O)c3cc(OC)c(OC)c(OC)c3)cn2S(=O)(=O)c2ccccc2)cc1OC [11ha, (2-(3,4-dimethoxyphenyl)-1-(phenylsulfonyl)-1H-imidazol-4-yl)(3,4,5-trimethoxyphenyl)methanone]	144 ± 29	192 ± 15	114 ± 6	970 ± 68	117 ± 2	197 ± 9	139 ± 15
COc1ccc(-c2nc(C(=O)c3ccc(F)cc3)cn2S(=O)(=O)c2ccccc2)cc1OC [11hb, (2-(3,4-dimethoxyphenyl)-1-(phenylsulfonyl)-1H-imidazol-4-yl)(4-fluorophenyl)methanone]	3310	960 ± 59	1920 ± 77	2000 ± 400	1440 ± 49	10000	1400 ± 30
COc1cc(C(=O)c2cn(S(=O)(=O)c3ccccc3)c(-c3ccccc3C(F)(F)F)n2)cc(OC)c1OC [11ia, (1-(phenylsulfonyl)-2-(2-(trifluoromethyl)phenyl)-1H-imidazol-4-yl)(3,4,5-trimethoxyphenyl)methanone]	> 10000	> 10000	> 10000	> 10000	> 10000	> 10000	> 10000
O=C(c1ccc(F)cc1)c1cn(S(=O)(=O)c2ccccc2)c(-c2ccccc2C(F)(F)F)n1 [11ib, (1-(phenylsulfonyl)-2-(2-(trifluoromethyl)phenyl)-1H-imidazol-4-yl)(4-fluorophenyl)methanone]	> 10000	> 10000	> 10000	> 10000	> 10000	> 10000	> 10000
